US20260272936A1, “TREATMENT OF CANCER WITH A PARG INHIBITOR” (858 Therapeutics, Inc., priority 2023, published 2026)

Tests used:
[1] = test system: HCC1428 breast cancer xenograft; experiment: HCC1428 breast cancer CDX model, tumor volume and body weight; type: in vivo, BALB/c nude mice; details: for % TGI: 25 days
Method: Two separate studies were performed. […] Groups of 8 animals each were established by random assignment. Tumor volumes and body weights were measured twice weekly. The tumor volume (TV) in mm^3 was estimated using the formula: TV=a×b^2/2, where a and b are the long and short diameters of a tumor, respectively. For each treatment group, if the mean TV at the end of study was greater than the mean tumor volume at treatment initiation, then tumor growth inhibition (TGI) was calculated using the formula: % TGI=[1-(Mean TreatedTVFinal−Mean Treated TVInitial)/(Mean Vehicle TVFinal−Mean VehicleTVInitial)]×100. If the mean TV of the treatment group at the end of study was less than the mean tumor volume at treatment initiation, then tumor regression (REG) was calculated using the formula: % REG=[(Mean Treated TVInitial−Mean Treated TVFinal)/Mean TreatedTVInitial]×100. Statistical analysis of end-of-study tumor volumes was performed using two-way repeated measures ANOVA followed by post hoc comparisons of the mean.
The PARP inhibitor niraparib was included as a comparator and dosed orally QD at a dose of 45 mg/kg.
The mice in the 50 mg/kg BID group were dosed every day whereas the mice in the […] were dosed for the first 5 days of each 7-day cycle, such that the total weekly dose was the same between these two groups. At the end of the study, tumor tissue was collected for the vehicle, 50 mg/kg BID, and 30, 50 and 100 mg/kg QD dose groups and formalin-fixed and paraffin embedded (FFPE) for γH2AX immunohistochemistry. γH2AX expression in FFPE tumor tissue was evaluated by staining and was performed using immunohistochemistry and validated antibody conditions at Histowiz (Long Island City, NY, USA). The γH2AX IHC images were then quantified in-house using QuPath software. The total number of nuclei objects per tumor section based on hematoxylin counter-staining (blue) were segmented using a Stardist algorithm and the number of γH2AX positive DAB (3,3′ Diaminobenzidine) stained cells (brown) quantified using object classification with a pre-trained random forest model based on DAB staining parameters including intensity and standard deviation.

[2] = test system: HCC1428 breast cancer xenograft; details: monotherapy or in combinations
Method: The CDX model was established by subcutaneous inoculation of HCC1428 cells into the right flank of BALB/c nude mice. Mice were injected subcutaneously with estradiol benzoate one day prior to cell inoculation and then twice per week thereafter to promote optimal growth of the ER^+ cell line. Groups of 9 animals each were established by random assignment. Tumor volumes and body weights were measured twice weekly. Tumor volume and percent tumor growth inhibition (TGI) or percent tumor regression (REG) were calculated as described in Example 4A. End-of-study Day […] TGI or REG was calculated relative to the Day 25 mean TV from the vehicle group. Statistical analysis of the Day 25 tumor volumes was performed using the Brown-Forsythe and Welch ANOVA test.
Compound treatment was initiated when the mean tumor volume of each group was 184 mm^3. Compound 1 was administered to mice orally for 25 days once daily (QD) at a dose of 100 mg/kg based on body weight. Abemaciclib was administered orally at a dose of 30 mg/kg QD for 25 days based on body weight and fulvestrant was administered subcutaneously at a dose of 5 mg/mouse once per week (QW). Following the dosing period of 25 days, an observation period was conducted for Group 5 (Compound 1+abemaciclib), Group 7 (abemaciclib+fulvestrant), and Group 8 (Compound 1+abemaciclib+fulvestrant) with continued twice weekly measurement of tumor volume and body weight measurements but no additional administration of compound.

[3] = test system: RMUG-S ovarian cancer xenograft; experiment: RMUG-S ovarian cancer CDX model; type: in vivo, NOD SCID or NOG mice
Method: The CDX model was established by subcutaneous inoculation of 1×10^7 viable RMUG-S cells into the right flank of NOD SCID or NOG mice. […] Compound 1 was administered to mice orally either once daily (QD) or twice daily (BID) for 32-50 days. Compound 1 was administered to mice continuously throughout the treatment period (7/7 days) or intermittently from Monday-Friday (5/7 days), or Monday-Thursday (4/7 days) during the treatment period.
For all studies, tumor volumes and body weights were measured twice weekly. […] Statistical analysis of end-of-study mean tumor volumes for the T025OV model was performed using an unpaired t-test with Welch's correction.

[4] = test system: T025OV ovarian cancer patient-derived xenograft; experiment: T025OV ovarian cancer PDX model; type: in vivo, NOG mice; details: 75 mg/kg BID, 50 days
Method: tissue from a treatment naïve patient with Stage 1 serous ovarian cancer was obtained from Discovery Life Sciences (Huntsville, AL, Case ID #200000835) and was expanded by subcutaneous implantation into female NOG mice. For tumor development, mice were inoculated subcutaneously on the right flank with isolated […] cells at 1×10^6 viable cells per mouse in 0.2 mL of DPBS mixed with Matrigel® Growth Factor Reduced Basement Membrane Matrix (1:1 ratio) (Corning®, Tewksbury, MA, USA, Cat #356237). Groups were established and drug treatment initiated when the mean tumor volume reached approximately 140-150 mm^3. […] For all studies, tumor volumes and body weights were measured twice weekly. […] Statistical analysis of end-of-study mean tumor volumes for the […] model was performed using an unpaired t-test with Welch's correction.

**Q.** How did the “mean body loss over the treatment period” value ([1]; Study 1, 75 mg/kg BID) turn out when [2H]C([2H])(c1cnn(C)c1)N1C(=O)c2cc(S(=O)(=O)NC3(C)CC3)ccc2N2C1=NC[C@H]2C [Compound 1, (R)-1-methyl-4-((1-methyl-1H-pyrazol-4-yl)methyl-d2)-N-(1-methylcyclopropyl)-5-oxo-1,2,4,5-tetrahydroimidazo[1,2-a]quinazoline-7-sulfonamide] was run?
**A.** < 4%

**Q.** What about the “mean body weight change over the treatment period” value ([1]; Study 1, 100 mg/kg QD) of the same compound?
**A.** mean body weight increase

**Q.** What about the “% TGI” value ([1]; Study 2, 10 mg/kg QD oral) of the same compound?
**A.** 26% TGI

**Q.** And the “% TGI” value ([1]; Study 2, 30 mg/kg QD oral)?
**A.** 35% TGI

**Q.** And the “mean body weight loss during the treatment period” value ([1]; Study 2, all dose groups)?
**A.** ≤ 2%

**Q.** And the tolerability [2]?
**A.** well tolerated

**Q.** What about the “mean body weight gain over the treatment period” value ([3]; first study, highest dose group) of the same compound?
**A.** 5%

**Q.** And the “tolerability (body weight)” value ([3]; second study)?
**A.** generally well tolerated

**Q.** And the “mean decrease in body weight” value [4]?
**A.** 4.6%
